What all share (assay): biochemical
Holding throughout (design): DiscoveRx KINOMEscan active site-directed competition binding; percent of control kinase bound to immobilised ligand

Assay [1] addresses PIK3CA(C420R) (Homo sapiens, UniProt P42336, C420R).
Assay [2] addresses FER (Homo sapiens, UniProt P16591).
Assay [3] addresses T1, ADCK4 (Homo sapiens, UniProt Q96D53).
T1 construct: gene COQ8B
T1 sequence (Q96D53 1-544): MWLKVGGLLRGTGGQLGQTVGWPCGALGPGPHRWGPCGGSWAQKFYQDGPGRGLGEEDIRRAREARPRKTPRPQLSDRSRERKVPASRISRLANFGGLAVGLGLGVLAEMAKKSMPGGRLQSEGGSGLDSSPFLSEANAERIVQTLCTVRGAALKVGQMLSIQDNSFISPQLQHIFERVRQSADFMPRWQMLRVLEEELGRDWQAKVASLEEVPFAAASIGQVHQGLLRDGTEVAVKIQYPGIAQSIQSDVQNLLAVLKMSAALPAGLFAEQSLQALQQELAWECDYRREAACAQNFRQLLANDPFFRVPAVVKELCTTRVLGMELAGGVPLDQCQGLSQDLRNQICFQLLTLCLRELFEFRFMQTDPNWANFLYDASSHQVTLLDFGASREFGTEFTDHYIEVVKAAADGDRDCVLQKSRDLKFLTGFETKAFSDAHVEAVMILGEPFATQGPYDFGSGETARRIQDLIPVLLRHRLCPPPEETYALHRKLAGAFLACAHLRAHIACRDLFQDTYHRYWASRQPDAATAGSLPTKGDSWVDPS

Assay [4] deals with T2, CDK4-cyclinD1 (Homo sapiens, UniProt P11802).
T2 construct: cyclinD1

For assay [5], the target named is TGFBR2 (Homo sapiens, UniProt P37173).
The target of assay [6] is T3, ABL1(H396P)-phosphorylated (Homo sapiens, UniProt P00519, H396P).
T3 construct: phosphorylated

Assay [7] concerns the target T4, EPHA3 (Homo sapiens, UniProt P29320).
T4 sequence (P29320 1-983): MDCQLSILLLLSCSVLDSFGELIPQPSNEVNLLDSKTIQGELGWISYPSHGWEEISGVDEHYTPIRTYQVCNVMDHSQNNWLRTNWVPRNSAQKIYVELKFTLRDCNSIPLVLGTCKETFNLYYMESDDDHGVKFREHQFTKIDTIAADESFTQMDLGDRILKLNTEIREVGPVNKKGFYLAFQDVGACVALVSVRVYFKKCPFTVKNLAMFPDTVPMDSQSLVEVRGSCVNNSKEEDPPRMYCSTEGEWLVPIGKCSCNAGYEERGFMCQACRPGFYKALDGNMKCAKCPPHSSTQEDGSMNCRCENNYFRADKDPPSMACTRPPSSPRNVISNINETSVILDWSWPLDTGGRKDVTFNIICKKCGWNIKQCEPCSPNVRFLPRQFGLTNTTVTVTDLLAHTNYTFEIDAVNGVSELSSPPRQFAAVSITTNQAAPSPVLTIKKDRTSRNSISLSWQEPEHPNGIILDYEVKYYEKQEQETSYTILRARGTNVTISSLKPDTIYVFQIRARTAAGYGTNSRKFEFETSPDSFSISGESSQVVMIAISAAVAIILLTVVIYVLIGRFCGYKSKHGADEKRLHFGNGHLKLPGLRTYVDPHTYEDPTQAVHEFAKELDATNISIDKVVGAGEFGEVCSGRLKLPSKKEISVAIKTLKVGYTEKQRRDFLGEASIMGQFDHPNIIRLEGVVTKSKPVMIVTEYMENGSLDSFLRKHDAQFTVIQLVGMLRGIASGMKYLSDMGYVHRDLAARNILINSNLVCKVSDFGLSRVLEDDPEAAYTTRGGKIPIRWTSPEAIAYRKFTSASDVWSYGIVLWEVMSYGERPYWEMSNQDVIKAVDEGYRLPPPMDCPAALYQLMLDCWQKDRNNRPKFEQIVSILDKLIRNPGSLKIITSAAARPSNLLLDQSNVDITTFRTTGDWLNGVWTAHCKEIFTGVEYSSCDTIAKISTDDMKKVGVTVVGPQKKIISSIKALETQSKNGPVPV

The target of assay [8] is DAPK2 (Homo sapiens, UniProt Q9UIK4).
The target of assay [9] is ABL2 (Homo sapiens, UniProt P42684).
For assay [10], the target named is T5, PRKX (Homo sapiens, UniProt P51817).
T5 sequence (P51817 1-358): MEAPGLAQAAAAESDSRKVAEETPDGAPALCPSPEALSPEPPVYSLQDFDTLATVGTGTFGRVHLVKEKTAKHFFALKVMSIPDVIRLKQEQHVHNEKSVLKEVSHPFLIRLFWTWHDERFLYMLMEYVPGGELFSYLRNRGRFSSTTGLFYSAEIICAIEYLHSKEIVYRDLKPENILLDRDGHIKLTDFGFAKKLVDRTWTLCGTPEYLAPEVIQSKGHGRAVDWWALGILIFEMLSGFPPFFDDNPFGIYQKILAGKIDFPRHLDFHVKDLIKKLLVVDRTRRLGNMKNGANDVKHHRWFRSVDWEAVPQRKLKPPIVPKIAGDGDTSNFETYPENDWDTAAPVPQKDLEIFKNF

The target of assay [11] is T6, JNK1 (Homo sapiens, UniProt P45983).
T6 construct: gene MAPK8

[12] abbreviates: read-out: Niraparib (MK-4827) / %Ctrl @ 10000nM.
The mark [13] stands for this setting: read-out: Olaparib / %Ctrl @ 10000nM.
[14] abbreviates: read-out: Rucaparib / %Ctrl @ 10000nM, binding competition, % of control.
Where [15] appears, read: read-out: Talazoparib (BMN 673) / %Ctrl @ 10000nM.

This note sets out measurements from article PMC7026418, “The kinase polypharmacology landscape of clinical PARP inhibitors” (Scientific Reports, 2020).

Read-outs that look alike come from different tables or passages of the source.

PIK3CA(C420R), sequence (P42336 whole entry C420R): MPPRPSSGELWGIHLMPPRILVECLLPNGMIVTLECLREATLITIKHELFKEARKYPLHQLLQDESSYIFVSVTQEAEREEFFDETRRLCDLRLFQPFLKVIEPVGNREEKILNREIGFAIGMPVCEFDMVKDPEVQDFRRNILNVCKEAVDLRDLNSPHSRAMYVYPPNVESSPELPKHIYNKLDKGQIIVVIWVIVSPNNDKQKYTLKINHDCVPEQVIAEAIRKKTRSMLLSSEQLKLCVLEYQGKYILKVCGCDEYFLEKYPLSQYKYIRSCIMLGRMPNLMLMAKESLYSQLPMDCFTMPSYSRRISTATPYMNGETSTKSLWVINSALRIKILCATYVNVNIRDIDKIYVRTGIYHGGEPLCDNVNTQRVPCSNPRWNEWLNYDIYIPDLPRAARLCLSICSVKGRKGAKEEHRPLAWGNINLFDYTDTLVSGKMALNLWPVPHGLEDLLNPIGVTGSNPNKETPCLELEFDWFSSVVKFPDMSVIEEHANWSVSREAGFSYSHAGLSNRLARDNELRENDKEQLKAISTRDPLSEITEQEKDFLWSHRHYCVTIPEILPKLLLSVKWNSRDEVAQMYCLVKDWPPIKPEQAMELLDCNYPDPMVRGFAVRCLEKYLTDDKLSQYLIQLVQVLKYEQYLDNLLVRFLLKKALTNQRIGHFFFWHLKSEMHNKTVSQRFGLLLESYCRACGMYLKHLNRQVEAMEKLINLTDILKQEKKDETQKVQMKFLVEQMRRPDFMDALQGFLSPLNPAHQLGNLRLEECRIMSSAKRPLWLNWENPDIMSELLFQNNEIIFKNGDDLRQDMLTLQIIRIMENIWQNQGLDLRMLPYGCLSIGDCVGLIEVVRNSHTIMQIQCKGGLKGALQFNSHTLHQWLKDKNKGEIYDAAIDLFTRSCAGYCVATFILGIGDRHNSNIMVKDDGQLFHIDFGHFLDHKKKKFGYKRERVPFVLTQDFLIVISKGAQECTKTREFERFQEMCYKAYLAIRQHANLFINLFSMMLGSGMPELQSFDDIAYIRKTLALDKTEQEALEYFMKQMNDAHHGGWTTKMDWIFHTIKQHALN
T6 sequence (P45983 whole entry): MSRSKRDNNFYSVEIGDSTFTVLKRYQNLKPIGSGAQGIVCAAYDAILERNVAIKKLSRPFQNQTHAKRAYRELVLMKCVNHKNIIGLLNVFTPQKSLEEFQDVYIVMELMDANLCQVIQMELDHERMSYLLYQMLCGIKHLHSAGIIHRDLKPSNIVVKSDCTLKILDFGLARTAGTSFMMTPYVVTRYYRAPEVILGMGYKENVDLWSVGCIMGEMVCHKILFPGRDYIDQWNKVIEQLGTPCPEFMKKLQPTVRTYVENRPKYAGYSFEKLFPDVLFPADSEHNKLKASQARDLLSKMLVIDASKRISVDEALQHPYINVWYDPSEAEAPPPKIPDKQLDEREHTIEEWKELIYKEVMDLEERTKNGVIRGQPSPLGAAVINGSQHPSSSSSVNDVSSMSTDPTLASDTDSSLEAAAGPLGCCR
T2 sequence (P11802 whole entry): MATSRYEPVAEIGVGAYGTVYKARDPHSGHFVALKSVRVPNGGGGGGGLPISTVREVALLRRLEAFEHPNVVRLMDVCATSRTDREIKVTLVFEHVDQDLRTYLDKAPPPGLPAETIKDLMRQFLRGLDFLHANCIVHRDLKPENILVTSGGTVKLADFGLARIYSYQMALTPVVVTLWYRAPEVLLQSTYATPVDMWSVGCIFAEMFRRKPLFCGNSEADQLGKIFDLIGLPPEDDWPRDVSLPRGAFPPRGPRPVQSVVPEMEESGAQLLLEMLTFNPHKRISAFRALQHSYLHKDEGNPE
T2 sequence (P24385 whole entry partner): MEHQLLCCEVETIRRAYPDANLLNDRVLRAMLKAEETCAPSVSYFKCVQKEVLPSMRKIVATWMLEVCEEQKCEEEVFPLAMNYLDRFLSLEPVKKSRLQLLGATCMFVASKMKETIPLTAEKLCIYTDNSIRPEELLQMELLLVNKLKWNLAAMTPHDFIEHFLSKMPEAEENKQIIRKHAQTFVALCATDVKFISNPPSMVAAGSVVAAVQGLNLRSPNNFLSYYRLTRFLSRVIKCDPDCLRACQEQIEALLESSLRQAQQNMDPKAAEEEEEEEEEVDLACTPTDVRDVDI
ABL2, sequence (P42684 whole entry): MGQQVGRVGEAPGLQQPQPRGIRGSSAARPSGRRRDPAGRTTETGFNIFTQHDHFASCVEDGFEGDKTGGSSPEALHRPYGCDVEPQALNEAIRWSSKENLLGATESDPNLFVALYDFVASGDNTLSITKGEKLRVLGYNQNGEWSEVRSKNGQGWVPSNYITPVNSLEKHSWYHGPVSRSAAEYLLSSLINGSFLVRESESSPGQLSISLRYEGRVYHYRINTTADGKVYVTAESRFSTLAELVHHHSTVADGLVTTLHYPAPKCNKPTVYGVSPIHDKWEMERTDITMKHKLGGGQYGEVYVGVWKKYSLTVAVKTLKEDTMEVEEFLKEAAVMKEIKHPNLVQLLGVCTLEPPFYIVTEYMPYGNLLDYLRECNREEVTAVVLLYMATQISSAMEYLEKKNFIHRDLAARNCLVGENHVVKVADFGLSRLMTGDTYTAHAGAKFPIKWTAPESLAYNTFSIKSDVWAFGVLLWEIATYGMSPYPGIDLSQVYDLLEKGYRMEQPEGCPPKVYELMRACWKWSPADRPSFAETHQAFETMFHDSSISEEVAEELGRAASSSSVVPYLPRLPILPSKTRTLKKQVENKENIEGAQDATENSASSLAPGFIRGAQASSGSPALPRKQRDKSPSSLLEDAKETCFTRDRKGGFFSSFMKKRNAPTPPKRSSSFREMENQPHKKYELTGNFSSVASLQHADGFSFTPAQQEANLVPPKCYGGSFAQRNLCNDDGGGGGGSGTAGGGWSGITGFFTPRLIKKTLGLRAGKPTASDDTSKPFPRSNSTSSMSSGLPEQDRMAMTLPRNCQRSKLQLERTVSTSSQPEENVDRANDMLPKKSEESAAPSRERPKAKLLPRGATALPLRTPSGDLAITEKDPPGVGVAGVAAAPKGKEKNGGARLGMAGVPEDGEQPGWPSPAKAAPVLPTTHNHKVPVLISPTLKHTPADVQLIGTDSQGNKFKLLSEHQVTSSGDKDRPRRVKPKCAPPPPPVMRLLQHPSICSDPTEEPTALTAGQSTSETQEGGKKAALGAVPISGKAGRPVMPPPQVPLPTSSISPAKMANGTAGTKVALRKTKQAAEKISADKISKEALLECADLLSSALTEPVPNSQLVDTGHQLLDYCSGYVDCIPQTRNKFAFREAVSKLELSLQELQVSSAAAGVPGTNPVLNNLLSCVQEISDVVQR
DAPK2, sequence (Q9UIK4 whole entry): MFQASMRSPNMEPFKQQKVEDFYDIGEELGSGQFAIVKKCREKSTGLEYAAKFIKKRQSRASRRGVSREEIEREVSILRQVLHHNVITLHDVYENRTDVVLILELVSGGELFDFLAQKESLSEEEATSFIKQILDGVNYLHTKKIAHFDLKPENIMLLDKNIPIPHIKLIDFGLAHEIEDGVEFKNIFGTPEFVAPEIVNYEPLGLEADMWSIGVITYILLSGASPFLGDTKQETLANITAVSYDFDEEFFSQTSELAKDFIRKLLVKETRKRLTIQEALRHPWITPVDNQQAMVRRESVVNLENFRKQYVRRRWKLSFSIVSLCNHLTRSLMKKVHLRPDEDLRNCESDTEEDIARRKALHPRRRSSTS
TGFBR2, sequence (P37173 whole entry): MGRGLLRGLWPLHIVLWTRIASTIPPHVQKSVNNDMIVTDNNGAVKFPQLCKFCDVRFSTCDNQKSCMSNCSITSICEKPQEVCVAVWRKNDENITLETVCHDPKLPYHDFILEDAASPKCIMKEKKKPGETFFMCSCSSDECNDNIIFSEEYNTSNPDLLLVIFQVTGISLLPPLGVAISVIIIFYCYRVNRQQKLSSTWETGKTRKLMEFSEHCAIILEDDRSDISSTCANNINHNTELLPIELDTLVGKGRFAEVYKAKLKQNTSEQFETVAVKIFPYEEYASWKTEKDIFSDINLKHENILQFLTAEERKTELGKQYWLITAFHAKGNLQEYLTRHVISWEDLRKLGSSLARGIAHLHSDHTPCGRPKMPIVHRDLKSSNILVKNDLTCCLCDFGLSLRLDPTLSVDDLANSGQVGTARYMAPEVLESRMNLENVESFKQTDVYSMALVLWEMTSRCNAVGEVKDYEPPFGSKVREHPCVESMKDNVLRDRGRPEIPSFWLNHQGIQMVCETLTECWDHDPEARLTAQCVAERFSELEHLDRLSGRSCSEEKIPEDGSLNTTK
FER, sequence (P16591 whole entry): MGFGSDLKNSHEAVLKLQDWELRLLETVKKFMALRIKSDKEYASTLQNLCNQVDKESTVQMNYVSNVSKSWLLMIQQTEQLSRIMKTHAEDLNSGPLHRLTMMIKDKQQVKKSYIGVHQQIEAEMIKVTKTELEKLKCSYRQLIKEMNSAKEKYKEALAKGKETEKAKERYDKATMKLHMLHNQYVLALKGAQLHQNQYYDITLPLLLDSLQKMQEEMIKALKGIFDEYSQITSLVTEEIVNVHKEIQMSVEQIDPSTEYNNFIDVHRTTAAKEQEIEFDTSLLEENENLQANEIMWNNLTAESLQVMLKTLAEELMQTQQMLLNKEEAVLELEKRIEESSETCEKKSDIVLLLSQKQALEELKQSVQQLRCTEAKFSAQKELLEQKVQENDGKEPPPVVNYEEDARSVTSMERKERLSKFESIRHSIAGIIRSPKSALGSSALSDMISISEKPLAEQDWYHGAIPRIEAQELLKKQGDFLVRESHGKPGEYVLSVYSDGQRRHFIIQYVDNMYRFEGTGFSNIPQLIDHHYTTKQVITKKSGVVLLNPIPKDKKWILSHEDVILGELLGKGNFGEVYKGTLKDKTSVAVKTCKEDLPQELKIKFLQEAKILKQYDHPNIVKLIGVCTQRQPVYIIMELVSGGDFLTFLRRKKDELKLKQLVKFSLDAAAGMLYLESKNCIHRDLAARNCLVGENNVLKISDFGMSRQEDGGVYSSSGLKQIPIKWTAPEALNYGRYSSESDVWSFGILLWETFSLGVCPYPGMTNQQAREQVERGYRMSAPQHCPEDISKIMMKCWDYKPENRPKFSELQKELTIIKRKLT

For `NC(=O)c1cccc2cn(-c3ccc([C@@H]4CCCNC4)cc3)nc12` [Niraparib], the percent of control binding at 10 µM in assay [1] (setting [12]) came out at 98%; in [2] (setting [12]) it was 93%; in [3] (setting [12]) it was 100%; in assay [4] (setting [12]), 82%; in assay [5] (setting [12]) it was 92%; in [6] (setting [12]), 58%. The percent of control binding at 10 µM is 81% in [7] (setting [12]); 81% in assay [8] (setting [12]); 85% in assay [9] (setting [12]); 96% in [10] (setting [12]); 85% in assay [11] (setting [12]).

Consider `O=C(c1cc(Cc2n[nH]c(=O)c3ccccc23)ccc1F)N1CCN(C(=O)C2CC2)CC1` [Olaparib], for which the percent of control binding at 10 µM was found to be 100% in assay [2] (setting [13]); 97% in [3] (setting [13]); 80% in assay [4] (setting [13]); 89% in assay [5] (setting [13]); 83% in assay [6] (setting [13]); 100% in assay [7] (setting [13]). Also, the percent of control binding at 10 µM in assay [8] (setting [13]) was found to be 100%; in assay [9] (setting [13]) it was 100%; in assay [10] (setting [13]), 88%; in assay [11] (setting [13]), 98%.

With `CNCc1ccc(-c2[nH]c3cc(F)cc4c3c2CCNC4=O)cc1` [Rucaparib], the percent of control binding at 10 µM in assay [1] (setting [14]) stood at 74%; in assay [2] (setting [14]) it was 95%; in assay [3] (setting [14]), 82%; in [4] (setting [14]), 25%; in assay [5] (setting [14]), 96%; in assay [6] (setting [14]), 80%. In addition, the percent of control binding at 10 µM came out at 88% in assay [7] (setting [14]); 37% in assay [8] (setting [14]); 100% in [9] (setting [14]); 92% in assay [10] (setting [14]); 65% in [11] (setting [14]).

For the compound `Cn1ncnc1[C@H]1c2n[nH]c(=O)c3cc(F)cc(c23)N[C@@H]1c1ccc(F)cc1` [Talazoparib], the percent of control binding at 10 µM was found to be 100% in assay [1] (setting [15]); 94% in assay [2] (setting [15]); 100% in assay [3] (setting [15]); 70% in assay [4] (setting [15]); 98% in assay [5] (setting [15]); 92% in [6] (setting [15]). In addition, the percent of control binding at 10 µM in assay [7] (setting [15]) came out at 100%; in assay [8] (setting [15]) it was 95%; in assay [9] (setting [15]), 93%; in [10] (setting [15]) it was 94%; in assay [11] (setting [15]), 79%.
